molecular target: L-lactate dehydrogenase (Homo sapiens, UniProt V9HWB9); assay: Inhibition of LDH (unknown origin) assessed as reduction in lactate production by cell-based assay

| IC50 [µM] | Structure (SMILES) |
| --- | --- |
| < 1 | Cc1ccc(/C=C/c2cccc(-c3nn(-c4nc(C(=O)O)cs4)c(CC4CC4)c3Cc3ccc(S(N)(=O)=O)c(F)c3)c2)s1 |
| < 1 | Cc1ccc(-c2cc(-c3nn(-c4nc(C(=O)O)cs4)c(CC4CC4)c3Cc3ccc(S(N)(=O)=O)c(F)c3)ccc2F)cc1F |
| < 1 | CC1CC=C(c2cc(-c3nn(-c4nc(C(=O)O)cs4)c(CC4CC4)c3Cc3ccc(S(N)(=O)=O)c(F)c3)ccc2F)CC1 (stereo unspecified) |
| < 1 | CC(=O)c1cc(-c2nn(-c3nc(C(=O)O)cs3)c(CC3CC3)c2Cc2ccc(S(N)(=O)=O)c(F)c2)ccc1F |
| < 1 | CC1CCCC=C1c1cc(-c2nn(-c3nc(C(=O)O)cs3)c(CC3CC3)c2Cc2ccc(S(N)(=O)=O)c(F)c2)ccc1F (stereo unspecified) |
| < 1 | NS(=O)(=O)c1ccc(Cc2c(-c3ccc(F)c(C4=CCC(F)(F)CC4)c3)nn(-c3nc(C(=O)O)cs3)c2CC2CC2)cc1F |

Reference: ChEMBL document CHEMBL4251691, “Thiazole Derivatives as Inhibitors for the Treatment of Cancer Cells Resistant” (ACS Med Chem Lett, 2018)
